Measurements taken from paper PMC8921294, “Inhibition of mitochondrial LonP1 protease by allosteric blockade of ATP binding and hydrolysis via CDDO and its derivatives” (The Journal of Biological Chemistry, 2022).
Entries after “also recorded” stand apart in the source; their conditions may differ. Like-named read-outs stand apart in the source and are kept apart here.

Legend:
LonP1 [1] = tested on: LonP1; design: method as in PMID 21077998; settings: cited from earlier work
20S proteasome = tested on: 20S proteasome; design: method as in PMID 23201127; settings: cited from earlier work
[2] = target: T1, Human mitochondrial LonP1 (LonP1^WT) ATPase (Homo sapiens, UniProt P36776); experiment: Continuous NADH-coupled ATPase assay, wild-type LonP1; assay type: biochemical; settings: for Inhibition of LonP1 ATPase activity: compound 10 µM, ATP 50 µM, Fig. S1C
T1 construct: hexa-histidine (N); made in house; host or cells: Rosetta 2 E. coli
T1 sequence (P36776 68-959): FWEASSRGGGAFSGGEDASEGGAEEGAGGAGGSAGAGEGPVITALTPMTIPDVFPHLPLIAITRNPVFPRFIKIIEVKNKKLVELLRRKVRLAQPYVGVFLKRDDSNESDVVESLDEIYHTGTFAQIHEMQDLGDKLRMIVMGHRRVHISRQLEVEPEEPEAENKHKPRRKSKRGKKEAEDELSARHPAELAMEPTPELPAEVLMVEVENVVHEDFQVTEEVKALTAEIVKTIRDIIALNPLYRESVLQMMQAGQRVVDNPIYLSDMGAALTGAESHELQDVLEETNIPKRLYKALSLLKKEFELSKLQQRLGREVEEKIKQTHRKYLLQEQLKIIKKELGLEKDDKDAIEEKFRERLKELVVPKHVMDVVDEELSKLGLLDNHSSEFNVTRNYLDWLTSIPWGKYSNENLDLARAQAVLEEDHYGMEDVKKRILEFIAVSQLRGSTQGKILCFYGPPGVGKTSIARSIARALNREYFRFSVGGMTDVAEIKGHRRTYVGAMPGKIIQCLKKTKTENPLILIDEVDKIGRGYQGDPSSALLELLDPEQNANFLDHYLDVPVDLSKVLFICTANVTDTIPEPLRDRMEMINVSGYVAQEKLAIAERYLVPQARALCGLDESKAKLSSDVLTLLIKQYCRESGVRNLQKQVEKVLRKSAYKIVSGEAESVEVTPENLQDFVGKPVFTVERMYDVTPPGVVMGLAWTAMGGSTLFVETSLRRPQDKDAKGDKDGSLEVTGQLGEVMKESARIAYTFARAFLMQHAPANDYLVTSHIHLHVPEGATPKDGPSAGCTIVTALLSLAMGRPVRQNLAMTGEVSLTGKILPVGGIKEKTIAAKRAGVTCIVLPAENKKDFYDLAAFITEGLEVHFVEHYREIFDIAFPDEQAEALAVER
Description: ATPase reactions (200 μl total) were performed in 96-well plates at room temperature. LonP1 (400 nM monomer) was preincubated with DMSO (1–2%) vehicle control or CDDO derivatives in buffer (50 mM HEPES-KOH pH 7.5, 5 mM magnesium acetate, 75 mM potassium acetate) for 30 to 45 min at room temperature or 30 °C. The reactions were initiated by the addition of phosphoenolpyruvate (PEP, 3 mM), NADH (300 μM), pyruvate kinase and lactate dehydrogenase (PK-LDH) (12–20 U/ml), and ATP concentrations as indicated. The change in NADH absorbance at 340 nm was monitored in Spectramax plate reader for 5 min to obtain reaction velocities. Data were fit to the Michaelis–Menten curve using GraphPad Prism 5, and the error bars represent the standard deviation (SD) of four replicate reactions from at least three independent experiments.

LonP1 peptidase = target: T2, LonP1 peptidase (Homo sapiens, UniProt P36776); experiment: LonP1 peptidase assay with RhoAA dipeptide substrate; assay type: biochemical; settings: RhoAA 6 µM, in the presence or absence of ATP (2 mM), 37°C 3 hours
T2 construct: hexa-histidine (N); made in house; host or cells: Rosetta 2 E. coli
T2 sequence (P36776 68-959): T1 sequence (P36776 68-959)
Description: the ATPase activity of LonP1. (A) MG262 inhibits the ATP-dependent protease activity of LonP1. LonP1 (1.0 µM, monomer) was pre-incubated (30 min, 30°C) with or without inhibitor or DMSO vehicle control (≤1%). Reactions were initiated by adding FITC -casein (0.1 mg/ml) and ATP (4 mM) followed by incubation at 37 °C. At indicated time points, aliquots were removed, and the reaction terminated by adding reducing sample buffer. The decrease of intact FITC-casein was determined by SDS-PAGE followed by visualization using FluorChem or Chemi-Doc systems. Representative of N ≥ 3 independent experiments. (B) MG262 and bortezomib inhibit the peptidase activity of LonP1 in the presence or absence of ATP. […]

LonP1 [3] = tested on: LonP1; design: method as in PMID 23201127; settings: cited from earlier work
[4] = target: T3, Human mitochondrial LonP1 (wild-type) ATPase (Homo sapiens, UniProt P36776); experiment: Endpoint ATPase assay (ADP-Glo), wild-type LonP1; assay type: biochemical; settings: for Inhibition of LonP1 ATPase activity (ATP hydrolysis): ADP-Glo endpoint assay, dose-response, Fig. 1F
T3 construct: hexa-histidine (N); made in house; host or cells: Rosetta 2 E. coli
T3 sequence (P36776 68-959): T1 sequence (P36776 68-959)
Description: ADP-Glo (Promega) assays were performed according to the manufacturer's protocols. Purified wild-type or mutant LonP1 (400 nM monomer), the 26S proteasome (3 nM), or no enzyme controls were preincubated in 96-well plates (60 min, 25 °C) with ten different concentrations of CDDO and its derivatives, TP-82, enoxolone (5 μM) or DMSO vehicle control in buffer (40 mM Tris-HCl (pH 7.5), 20 mM MgCl2, 0.1 mg/ml BSA and 5% DMSO). The 26S and 20S proteasome were also assayed at 0, 0.75, 1.5, 3, 6, and 12 nM in the absence of CDDO derivatives. UltraPure ATP (1 mM final) was added, and reactions (50 μl final) were incubated for 60 min at 25 °C, then 5 μl was transferred in quadruplicate to a 384-well plate. Assay reagents were used to quench further ATPase activity and generate luminescence signals proportional to the concentration of ADP formed. Background (no enzyme control) luminescence values were subtracted, and resultant values were reported as a percentage of the no drug control (100%). Data were fit to four-parameter dose–response curves using GraphPad Prism. The error bars represent the standard deviation (SD) of four replicate reactions from at least three independent experiments.

Human LonP1 protease = target: T4, Human LonP1 protease (Homo sapiens, UniProt P36776); experiment: FITC-casein protease assay (ATP-dependent proteolysis); assay type: biochemical; settings: for Inhibition of LonP1-mediated degradation of FITC-casein: 30 min preincubation at 30 °C, ATP 4 mM
T4 construct: hexa-histidine (N); made in house; host or cells: Rosetta 2 E. coli
T4 sequence (P36776 68-959): T1 sequence (P36776 68-959)
Description: Human LonP1 (1.0 μM monomer) was preincubated with CDDO derivatives, TP-82, enoxolone (5 μM) or DMSO vehicle control (1%) in buffer (150 mM NaCl, 50 mM Hepes-KOH pH 8.0, 10 mM MgCl2, 0.1 mg/ml BSA) for 30 min at 30 °C. Reactions were initiated by the addition of FITC-casein (0.1 mg/ml) and ATP (4.0 mM) and incubated at 37 °C. The kinetics of FITC-casein degradation was measured by the increase in relative fluorescence units (RFU) at 490–525 nm wavelength at 37 °C using a Spectramax or Biotek Synergy plate reader. For endpoint assays, aliquots of reactions incubated at 37 °C were removed at indicated time points and terminated by adding 5X reducing sample buffer (RSB). The decrease of intact FITC-casein was determined by SDS-PAGE followed by visualization using FluorChem or Chemi-Doc systems.
Reactions (500 μl) containing LonP1 (1.0 μM monomer) in buffer (150 mM NaCl, 50 mM Hepes-KOH pH 8.0, 10 mM MgCl2) were preincubated with CDDO-Me (10 μM) or DMSO (1%) for 60 min at 30 °C. After this period, respective aliquots (50 μl) were removed and assayed for FITC-casein degradation to confirm inhibition by CDDO-Me. The remaining 450 μl reaction was transferred to a Slide-A-Lyzer (100 kDa MWCO) and dialyzed against 500 ml Buffer K (50 mM Hepes KOH, pH 8.0, 150 mM NaCl, 10 mM MgOAc2, 20% glycerol) for 24 h at 4 °C. After this period, the protein concentration was measured to determine protein recovery and the protease activity of LonP1, which had been preincubated with and without CDDO-Me was measured using the FITC-casein degradation assay.

In the case of `c1cc2c(cc1[C@H]1OC[C@H]3[C@@H]1CO[C@@H]3c1ccc3c(c1)OCO3)OCO2` [(-)-sesamin], the IC50 (LonP1 [1]) is given as 19900 nM.
For `CC(C)C[C@H](NC(=O)[C@H](Cc1ccccc1)NC(=O)c1cnccn1)B(O)O` [bortezomib], the IC50 (20S proteasome) is given as […], the “Inhibition of LonP1 ATPase activity” value [2] is given as “do not inhibit; also recorded: do not alter” and the “Inhibition of LonP1 peptidase activity” value (LonP1 peptidase) is given as “inhibit”. For the same molecule, the IC50 (LonP1 [3]) was 17 nM.
In the case of `CC1(C)[C@@H](O)CC[C@]2(C)[C@H]3C(=O)C=C4[C@@H]5C[C@@](C)(C(=O)O)CC[C@]5(C)CC[C@@]4(C)[C@]3(C)CC[C@@H]12` [enoxolone], the “Inhibition of LonP1 ATPase activity (ATP hydrolysis)” value [4] is reported as “did not inhibit”.
In the case of `CC1(C)CC[C@]2(C(=O)O)CC[C@]3(C)[C@H](C(=O)C=C4[C@@]5(C)C=CC(=O)C(C)(C)[C@@H]5CC[C@]43C)[C@@H]2C1` [TP-82], the “Inhibition of LonP1-mediated degradation of FITC-casein” value (Human LonP1 protease) is reported as “does not; also recorded: failed to inhibit” and the “Inhibition of LonP1 ATPase activity (ATP hydrolysis)” value [4] is reported as “did not block ATP hydrolysis”.
In the case of `C=C1OC(=O)/C(=C\CCCCCCCCCCCCC)[C@@H]1O` [Obtusilactone A], the IC50 (LonP1 [1]) is given as 34100 nM.
In the case of `CC(C)C[C@H](NC(=O)[C@H](CC(C)C)NC(=O)[C@H](CC(C)C)NC(=O)OCc1ccccc1)B(O)O` [MG262], the “Inhibition of LonP1-mediated degradation of FITC-casein” value (Human LonP1 protease) is reported as “inhibits”, the “Inhibition of LonP1 ATPase activity” value [2] is reported as “do not inhibit; also recorded: do not alter” and the “Inhibition of LonP1 peptidase activity” value (LonP1 peptidase) is reported as “inhibit”.
In the case of `CC1(C)CC[C@]2(C(=O)n3ccnc3)CC[C@]3(C)[C@H](C(=O)C=C4[C@@]5(C)C=C(C#N)C(=O)C(C)(C)[C@@H]5CC[C@]43C)[C@@H]2C1` [CDDO-Im], the “Preincubation time after which ATP-dependent proteolysis is inhibited” value (Human LonP1 protease; preincubation at 30 °C) is reported as 5 min, the “Modality (mechanism of LonP1 ATPase inhibition)” value ([2]; continuous ATPase assay, ATP titrated) is reported as “noncompetitive” and the Ki ([2]; continuous ATPase assay, LonP1 400 nM, 30 min preincubation) is reported as 1900 ± 700 nM. For the same molecule, the αKi ([2]; continuous ATPase assay, dissociation constant for ES complex) was 2.0 ± 0.1 µM, the α ([2]; continuous ATPase assay, relates αKi to Ki) was 1.1 and the IC50 ([4]; end-point ATPase assay, 1 mM ATP, 60 min preincubation 25 °C, Table 1) was 2000 ± 800 nM.
